This note sets out measurements from paper PMC6271467, “The Anthraquinone Derivatives from the Fungus Alternaria sp. XZSBG-1 from the Saline Lake in Bange, Tibet, China” (Molecules, 2014).

Bounds are passed on as bounds.

Holding throughout (format): cell-based
One experiment has as its system HCT-116. Kind of experiment: Cytotoxicity, MTT assay, HCT-116. The note with it: Homo sapiens, 48 h exposure, HCT-116 cells. As to the method:
(§1) Compounds 1–11 were evaluated for cytotoxic activity against several human cancer cell lines by MTT assay. […] The other compounds show no notable inhibitory activity against any tested cancer cell lines.
(§2) MCF-7/ADR, HeLa, HCT-116 cell lines were cultured in Dulbeccos’ modification Eagle’s medium (DMEM, Invitrogen, Carlsbad, CA, USA) supplemented with 10% fetal bovine serum (FBS, Hyclone, Logan, UT, USA), 2 mM L-glutamine, 100 μg/mL streptomycin and 100 U/mL penicillin (Invitrogen). The cells were incubated at 37 °C in a humidified atmosphere with 5% CO2.
(§3) Cells were harvested during logarithmic growth phase and seeded in 96-well plates at a density of 1 × 10^4 cells/mL, and cultured at 37 °C in a humidified incubator (5% CO2) for 24 h, followed by exposure to various concentrations of compounds tested for 48 h. Subsequently 20 μL of MTT (Genview, Houston, TX, USA) solution (5 mg/mL) was added to each well and mixed, the cells were then incubated for an additional 4 h. Culture supernatant was moved, 150 μL of DMSO (Sangon Biotech, Shanghai, China) was added to each well to fully dissolve the MTT-formazan crystals. Cell growth inhibition was determined by measuring the absorbance (Abs) at λ = 570 nm using a microplate reader and calculated according to the following equation: Growth inhibition = (1 − OD of treated cells/OD of control cells) × 100%
(§4) The half maximal inhibitory concentrations (IC50) were obtained from liner regression analysis of the concentration-response curves plotted for each tested compound [17, 18].
(In general: Formazan colour is commonly taken as a measure of viable cells.)

For the next experiment, the system named is MCF-7/ADR. Kind of experiment: Cytotoxicity, MTT assay, MCF-7/ADR. The note with it: Homo sapiens, NCI/ADR-RES, 48 h exposure, MCF-7/ADR cells. As to the method:
as §1, §2, §3, §4

In a further experiment the test system is HeLa. Briefly: Cytotoxicity, MTT assay, HeLa. The conditions noted are these: Homo sapiens, 48 h exposure, HeLa cells. Here is the method: as §1, §2, §3, §4

As to `COc1cc(O)c2c(c1)C(=O)c1cc(C)c(O)cc1C2=O` [Compound 11, macrosporin], the concentration for half-maximal inhibition (IC50) with HCT-116, in the experiment with MCF-7/ADR and in the experiment on HeLa was more than 100 µM each time.

With `COc1cccc2c1C(=O)c1c(O)c3c(c(O)c1C2=O)C[C@@](O)(C(=O)CO)C[C@@H]3O[C@H]1C[C@H](N)[C@@H](O)[C@H](C)O1` [EPI, Epirubicin, reference compound], the IC50 (commonly the concentration at which inhibition is half-maximal) in the experiment on HCT-116 turned out to be 0.96 ± 0.02 µM; in the experiment on MCF-7/ADR it was 2.36 µM; in the experiment on HeLa it was 0.48 ± 0.03 µM.

Turning to `COc1cc(O)c2c(c1)C(=O)c1cc(C)c(O)c(-c3c(OC)cc(O)c4c3C(=O)C3=C(C4=O)[C@H](O)[C@@H](O)[C@@](C)(O)[C@H]3O)c1C2=O` [Compound 7, alterporriol N], the IC50 with HCT-116, in the experiment on MCF-7/ADR and in the experiment with HeLa was more than 100 µM each time.

Take `COc1cc2c(c(-c3c(O)c(OC)cc4c3C(=O)C3=C(C4=O)[C@@H](O)[C@H](O)[C@](C)(O)[C@@H]3O)c1O)C(=O)C1=C(C2=O)[C@@H](O)[C@H](O)[C@](C)(O)[C@@H]1O` [Compound 5, alterporriol E]: the concentration for half-maximal inhibition (IC50) in the experiment with HCT-116, with MCF-7/ADR and in the experiment with HeLa was more than 100 µM throughout.

Consider `COc1cc(O)c2c(c1-c1c(OC)cc(O)c3c1C(=O)C1=C(C3=O)[C@@H](O)[C@H](O)[C@](C)(O)[C@@H]1O)C(=O)C1=C(C2=O)[C@@H](O)[C@H](O)[C@](C)(O)[C@@H]1O` [Compound 6, alterporriol D], for which the 50% inhibitory concentration (IC50) in the experiment on HCT-116, with MCF-7/ADR and with HeLa was more than 100 µM throughout.

As to `COc1cc(O)c2c(c1)C(=O)C13OC1(C2=O)[C@H](O)[C@@H](O)[C@@](C)(O)[C@H]3O` (relative stereo) [Compound 1, (1R*,2R*,3R*,4R*)-1,2,3,4,8-pentahydroxy-6-methoxy-3-methyl-1,2,3,4-tetrahydro-4a,9a-epoxyanthracene-9,10-dione], the figures for the IC50 in the experiment with HCT-116, with MCF-7/ADR and with HeLa were 23.2 ± 2.85 µM, 18.5 µM and 43.7 ± 4.02 µM, respectively.

On to `COc1cc(O)c2c(c1-c1c(OC)cc(O)c3c1C(=O)c1cc(C)c(O)cc1C3=O)C(=O)C1=C(C2=O)[C@@H](O)[C@H](O)[C@](C)(O)[C@H]1O` [Compound 8, alterporriol A], for which the half-maximal inhibitory concentration (IC50) with HCT-116 was more than 50 µM; with MCF-7/ADR, 45 µM; in the experiment on HeLa, more than 50 µM.

Regarding `COc1cc(O)c2c(c1-c1c(OC)cc(O)c3c1C(=O)c1cc(C)c(O)cc1C3=O)C(=O)C1=C(C2=O)[C@H](O)[C@@H](O)[C@@](C)(O)[C@H]1O` (relative stereo) [Compound 3, (1S*,2R*,3S*,4S*)-1,2,2',3,4,8,8'-heptahydroxy-6,6'-dimethoxy-3,3'-dimethyl-1,2,3,4-tetrahydro-[5,5'-bianthracene]-9,9',10,10'-tetraone], the concentration for half-maximal inhibition (IC50) in the experiment on HCT-116 was 32.4 ± 1.57 µM; with HeLa, more than 50 µM.

On to `COc1cc(O)c2c(c1)C(=O)C1=C(C2=O)[C@H](O)[C@@H](O)[C@@](C)(O)[C@@H]1O` [Compound 10, altersolanol A], for which the IC50 in the experiment on HCT-116, in the experiment with MCF-7/ADR and in the experiment on HeLa was more than 100 µM throughout.

Turning to `COc1cc(O)c2c(c1)C(=O)C1=C(C2=O)[C@H]([C@H]2C3=C(C(=O)c4cc(OC)cc(O)c4C3=O)[C@H](O)[C@](C)(O)[C@H]2O)[C@H](O)[C@@](C)(O)[C@H]1O` (relative stereo) [Compound 2, (1S*,1'S*,2R*,2'R*,3S*,3'S*,4S*,4'S*)-1,1',2,2',3,3',5,5'-octahydroxy-7,7'-dimethoxy-2,2'-dimethyl-1,1',2,2',3,3',4,4'-octahydro-[4,4'-bianthracene]-9,9',10,10'-tetraone], the results for the IC50 in the experiment with HCT-116, with MCF-7/ADR and with HeLa were more than 50 µM, more than 100 µM and more than 50 µM, respectively.

For the compound `COc1cc(O)c2c(c1-c1c(OC)cc(O)c3c1C(=O)c1cc(C)c(O)cc1C3=O)C(=O)C1=C(C2=O)[C@@H](O)[C@@H](O)[C@@](C)(O)[C@H]1O` (relative stereo) [Compound 4, (1R*,2R*,3S*,4S*)-1,2,2',3,4,8,8'-heptahydroxy-6,6'-dimethoxy-3,3' dimethyl-1,2,3,4-tetrahydro-5,5'-bianthracene-9,9',10,10'-tetraone], the IC50 is more than 50 µM with HCT-116, more than 50 µM with MCF-7/ADR and more than 100 µM in the experiment with HeLa.

As for `COc1cc(O)c2c(c1)C(=O)C1=C(C[C@@H](O)[C@@](C)(O)[C@@H]1O)C2=O` [Compound 9, altersolanol C], the IC50 in the experiment with HCT-116 was 3.03 ± 0.05 µM; in the experiment on MCF-7/ADR, more than 100 µM; in the experiment with HeLa, 8.09 ± 0.89 µM.
